pIC50: −log10 of the molar value.

The target in one data set is CYP1A2 (Homo sapiens (Human), UniProt P05177). In words: Cytochrome P450 activity inhibition, CYP1A2. It is filed as in vitro ADME. The note with it: 10 μM, human liver microsomes. An excerpt: (§1) 1) Cytochrome P450 (CYP450) Activity Inhibition Evaluation
The next data set deals with CAL-62 cells. In words: 125I uptake assay in anaplastic thyroid cancer cells. It is filed as cell-based.
The next data set relates to ERRγ mRNA in CAL62 cells. The data set is described as follows: Quantitative RT-PCR, ERRγ mRNA. It counts as cell-based. The method, then:
(§2) Total RNA was separated using Trizol (Invitrogen, Carlsbad, Calif.). Total RNA (2 ug) was reverse-transcribed into cDNA with RevertAid First Strand cDNA Synthesis Kit (Thermo Scientific, Pittsburgh, Pa.). Genes were amplified with a ViiA 7 Real-Time PCR System instrument (Applied Biosystems) using the primer of each target gene and YBR Green PCR master mix (Applied Biosystems, Foster City, Calif.), using a cDNA template. The primer sequence of each target gene is as follows: ERRγ (forward, 5′-CAG ACG CCA GTG GGA GCT A-3′; reverse, 5′-TGGCGAGTCAAGTCCGTTCT-3′), NIS (forward, 5′-TCTAACCGATGCTCACCTCTTCTG-3′; reverse, 5′-AGATGATGGCACCTCCTTGAACC-3′), and acidic ribosomal protein 36B4 (forward, 5′-CCA CGC TGC TGA ACA TGC T-3′; reverse, 5′-TCGAACACCTGCTGGATGAC-3′). Each target gene was normalized using a 36B4 gene.

Another data set concerns NIS mRNA in CAL62 cells. In words: Quantitative RT-PCR, NIS mRNA. It is filed as cell-based. Here is the method: as §2
Data set [1] relates to ERRγ protein in CAL62 cells. In words: Western blot, ERRγ protein. It is filed as cell-based.
Data set [2] concerns NIS protein in CAL62 cells. The data set is described as follows: Western blot, total and membrane-localized NIS protein. It counts as cell-based, human.
Another data set relates to CAL62 cells. In words: Clonogenic assay with 131I. It is filed as cell-based. The note with it: alone.
The test system of data set [3] is CAL-62/effluc mouse tumor model. The data set is described as follows: Bio-distribution study, 125I uptake in CAL-62/effluc tumor. It counts as in vivo.
Procedure: Nude mice (Balb/c nu/nu, female, 6 weeks old) were used, and all animals were normally raised in DMRC center animal laboratory of Kyungbuk National University Hospital in Chilgok. 5×10^6 CAL-62/effluc cells were subcutaneously injected into the left femoral region of the nude mouse to form a tumor. The tumor was extracted, divided into small pieces (20 mg or more), and then intradermally injected into the nude mouse to form a tumor.
After 4 hours of administration, all organs including a parent tumor were extracted, and each organ was weighed. Thereafter, each organ was transferred to a 5 mL test tube, and radioactivity in the organ was measured using a gamma counter.
A short description of data set [4]: Weight change of mice during administration. The note with it: all groups.
The next data set concerns the target ERR alpha LBD (Homo sapiens (Human), UniProt P11474). The conditions noted are these: read-out: Binding Assay, IC50 ERRα.
The next data set deals with ERRβ (Homo sapiens, UniProt O95718). In words: ERRβ binding assay (selectivity test), TR-FRET.
Data set [5] has as its target ER alpha ligand-binding domain (LBD) (Homo sapiens (Human), UniProt P03372). The note with it: beta-estradiol 4 nM as agonist; read-out: Binding Assay, IC50 ERα.
Procedure: (§3) The arylethene derivative of the present invention was sequentially added to a 384 well plate from a concentration of 10 μM to a final concentration of two-fold dilution. […] After all reagents were added, a reaction was carried out with gentle shaking at 20° C. for 1 hour, and after the reaction, a binding activity was measured by a TR-FRET method.
For another data set, the system named is ERRγ. It counts as cell-based.
The next data set addresses CYP2C9 (Homo sapiens (Human), UniProt P11712). The data set is described as follows: Cytochrome P450 activity inhibition, CYP2C9. It is filed as in vitro ADME. The conditions noted are these: 10 μM, human liver microsomes.
From the text: as §1

In a further data set the target is CYP2C19 (Homo sapiens (Human), UniProt P33261). In words: Cytochrome P450 activity inhibition, CYP2C19. It is filed as in vitro ADME. The note with it: 10 μM, human liver microsomes.
From the text: as §1

Another data set concerns the target CYP2D6 (Homo sapiens (Human), UniProt P10635). The data set is described as follows: Cytochrome P450 activity inhibition, CYP2D6. It is filed as in vitro ADME. The conditions noted are these: 10 μM, human liver microsomes.
From the text: as §1

In the next data set the target is CYP3A4 (Homo sapiens (Human), UniProt P08684). In words: Cytochrome P450 activity inhibition, CYP3A4. It counts as in vitro ADME. The note with it: 10 μM, human liver microsomes.
Data set [6] is classed as in vitro ADME, human. The conditions noted are these: 1 μM, 30 minutes, 37° C.
Procedure: 2) Microsomal Stability Evaluation
(§4) Four liver microsomes (Human, Dog, Rat, Mouse 0.5 mg/ml) with a 0.1 M phosphate buffer solution (pH 7.4), and the arylethene derivative of the present invention were added to a concentration of 1 μM, culturing was performed at 37° C. for 5 minutes in advance, a NADPH regeneration system solution was added thereto, and culturing was performed at 37° C. for 30 minutes. Thereafter, in order to complete the reaction, an acetonitrile solution containing an internal standard material (chlorpropamide) was added thereto, centrifugation (14,000 rpm, 4° C.) was performed for 5 minutes, and a supernatant was injected into a LC-MS/MS system to analyze the substrate drug, thereby evaluating metabolism stability to the arylethene derivative of the present invention.
Data set [7] is classed as in vitro ADME, dog. The conditions noted are these: 1 μM, 30 minutes, 37° C.
Procedure: 2) Microsomal Stability Evaluation
as §4
The format of data set [8] is in vitro ADME, rat. The conditions noted are these: 1 μM, 30 minutes, 37° C.
Procedure: 2) Microsomal Stability Evaluation
as §4
The format of data set [9] is in vitro ADME, mouse. The conditions noted are these: 1 μM, 30 minutes, 37° C.
Procedure: 2) Microsomal Stability Evaluation
as §4
Data set [10] addresses ERR gamma ligand-binding domain (LBD) (Homo sapiens (Human), UniProt P62508). The data set is described as follows: ERRγ binding assay (inverse agonist assay), TR-FRET.
Procedure: 1) ERRγ Binding Assay (Inverse Agonist Assay)
as §3
The format of data set [11] is in vitro ADME. The conditions noted are these: PBS pH 7.4, 25° C., 5 hours.
Procedure: 3) Parallel Artificial Membrane Permeability Assay (PAMPA) Evaluation
PAMPA is a method which has been developed for testing cell membrane permeability of a material in a test tube, and has been performed using a lipid tri-layer PVDF membrane available from Corning Gentest (NY, US), the used reagents were all purchased from Sigma (MO, US). First, a test material is diluted in PBS (pH 7.4) to a final concentration of 10 mM, 300 mL of the solution is added to the bottom well of a 96-transwell equipped with a PVDF membrane, and 200 mL of PBS is added to the upper well. Then, a plate is reacted at 25° C. for 5 hours, 20 mL of the solution in each well is transferred to a new container, and 80 mL of acetonitrile containing an internal standard material (4 mM chloropropamide) is added thereto. A concentration of the material in the solution is analyzed using LC-MS/MS (ThermoFisher Scientific, MO, US), and the transmittance of the material is calculated according to the equation reported in the reference document. • Reference document: A novel design of artificial membrane for improving the PAMPA model.
The next data set deals with pERK1/2 in CAL62 cells. The data set is described as follows: Western blot, phosphorylated ERK1/2 (MAP kinase). It counts as cell-based. The conditions noted are these: selective MEK inhibitor.
The format of data set [12] is in vivo. The note with it: rat, PO 10 mg/kg vs IV 1 mg/kg.
Procedure: An oral administration group fasts the day before.
Blood of each animal is collected at 0 hour.
Into a tail vein of an intravenous administration group (IV), a drug is injected at a dose of 1 mg/kg (syringe).
To an oral administration group (PO), a drug is orally administered at a dose of 10 mg/kg (oral zondec)
After administration, blood of the intravenous administration group was collected through a jugular vein 8 times at 0.08, 0.25, 0.5, 1, 2, 4, 6, and 8 hours. One collected blood amount is 400 to 500 ul.
After administration, blood of the oral administration group was collected through a jugular vein 6 times at 0.25, 0.5, 1, 4, 6 and 8 hours. One collected blood amount is 400 to 500 ul.
Supernatant plasma is collected by a centrifuge.
The supernatant plasma was injected into a LC-MS/MS system and the drug is analyzed.
The next data set has as its system ATC mouse tumor model. The conditions noted are these: cited from earlier work.

Chain of CYP1A2 (P05177 whole entry): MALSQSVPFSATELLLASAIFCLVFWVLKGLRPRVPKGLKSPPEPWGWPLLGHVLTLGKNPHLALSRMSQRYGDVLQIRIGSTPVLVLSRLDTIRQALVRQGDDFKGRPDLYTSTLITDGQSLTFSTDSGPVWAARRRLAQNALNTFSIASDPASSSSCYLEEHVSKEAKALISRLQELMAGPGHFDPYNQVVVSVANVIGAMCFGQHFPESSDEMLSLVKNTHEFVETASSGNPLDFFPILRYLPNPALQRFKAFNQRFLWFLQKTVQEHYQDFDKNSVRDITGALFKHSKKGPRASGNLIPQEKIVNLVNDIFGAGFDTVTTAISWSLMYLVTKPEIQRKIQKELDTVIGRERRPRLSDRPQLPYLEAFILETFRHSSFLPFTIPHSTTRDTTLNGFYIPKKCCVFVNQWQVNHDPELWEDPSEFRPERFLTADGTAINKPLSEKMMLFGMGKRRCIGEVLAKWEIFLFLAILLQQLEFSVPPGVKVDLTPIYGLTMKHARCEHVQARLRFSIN
Chain of CYP2C9 (P11712 whole entry): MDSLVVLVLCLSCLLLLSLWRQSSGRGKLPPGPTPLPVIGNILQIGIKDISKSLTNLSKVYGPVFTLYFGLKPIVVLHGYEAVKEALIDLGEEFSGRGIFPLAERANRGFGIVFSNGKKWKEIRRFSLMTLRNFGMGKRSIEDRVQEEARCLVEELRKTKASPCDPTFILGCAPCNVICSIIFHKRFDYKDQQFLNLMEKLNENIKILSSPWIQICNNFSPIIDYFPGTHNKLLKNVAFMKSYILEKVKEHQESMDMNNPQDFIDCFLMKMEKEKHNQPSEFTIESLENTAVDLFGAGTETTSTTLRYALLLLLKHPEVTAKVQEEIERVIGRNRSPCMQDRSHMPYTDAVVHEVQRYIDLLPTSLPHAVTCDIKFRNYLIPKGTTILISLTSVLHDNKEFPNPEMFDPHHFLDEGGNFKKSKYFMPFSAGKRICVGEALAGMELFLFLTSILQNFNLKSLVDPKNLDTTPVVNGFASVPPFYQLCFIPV
Chain of CYP2D6 (P10635 whole entry): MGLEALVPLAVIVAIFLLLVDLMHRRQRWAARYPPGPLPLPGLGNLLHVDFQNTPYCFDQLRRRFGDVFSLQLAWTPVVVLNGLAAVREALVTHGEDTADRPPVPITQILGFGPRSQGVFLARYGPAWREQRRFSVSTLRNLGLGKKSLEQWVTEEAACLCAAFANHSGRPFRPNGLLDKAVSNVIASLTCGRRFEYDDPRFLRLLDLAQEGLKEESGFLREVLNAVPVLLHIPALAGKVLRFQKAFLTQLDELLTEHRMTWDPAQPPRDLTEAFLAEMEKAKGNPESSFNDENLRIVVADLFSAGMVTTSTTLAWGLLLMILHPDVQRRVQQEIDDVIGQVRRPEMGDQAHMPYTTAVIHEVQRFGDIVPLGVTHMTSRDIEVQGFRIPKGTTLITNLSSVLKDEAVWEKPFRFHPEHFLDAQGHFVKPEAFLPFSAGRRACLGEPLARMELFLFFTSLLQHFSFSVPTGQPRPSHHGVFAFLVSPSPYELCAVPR
Chain of CYP3A4 (P08684 whole entry): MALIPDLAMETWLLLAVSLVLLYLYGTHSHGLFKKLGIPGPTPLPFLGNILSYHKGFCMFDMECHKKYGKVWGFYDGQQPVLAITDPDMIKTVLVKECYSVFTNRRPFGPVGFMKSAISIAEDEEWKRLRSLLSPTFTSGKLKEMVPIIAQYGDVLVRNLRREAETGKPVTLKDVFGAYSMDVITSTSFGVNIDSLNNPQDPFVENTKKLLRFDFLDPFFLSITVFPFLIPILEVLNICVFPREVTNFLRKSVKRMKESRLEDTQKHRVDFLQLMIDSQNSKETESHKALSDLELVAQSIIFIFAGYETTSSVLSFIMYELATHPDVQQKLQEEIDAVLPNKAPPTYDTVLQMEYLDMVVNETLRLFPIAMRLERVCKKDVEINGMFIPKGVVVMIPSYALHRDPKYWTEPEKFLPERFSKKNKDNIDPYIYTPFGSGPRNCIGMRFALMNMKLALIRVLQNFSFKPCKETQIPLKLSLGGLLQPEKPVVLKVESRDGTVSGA
Chain of CYP2C19 (P33261 whole entry): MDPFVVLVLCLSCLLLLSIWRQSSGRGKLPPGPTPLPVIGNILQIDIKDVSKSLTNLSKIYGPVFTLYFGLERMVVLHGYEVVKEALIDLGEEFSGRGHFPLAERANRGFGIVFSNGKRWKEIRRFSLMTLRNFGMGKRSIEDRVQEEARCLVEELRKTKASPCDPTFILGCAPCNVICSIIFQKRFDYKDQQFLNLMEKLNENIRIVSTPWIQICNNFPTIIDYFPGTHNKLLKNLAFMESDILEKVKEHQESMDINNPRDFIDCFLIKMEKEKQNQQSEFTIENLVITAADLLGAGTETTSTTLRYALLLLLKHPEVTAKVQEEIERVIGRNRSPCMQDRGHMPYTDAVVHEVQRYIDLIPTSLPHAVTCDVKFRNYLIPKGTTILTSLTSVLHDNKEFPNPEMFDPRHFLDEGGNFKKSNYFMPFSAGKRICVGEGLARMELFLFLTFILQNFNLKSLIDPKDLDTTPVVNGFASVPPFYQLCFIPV
Chain of ER alpha ligand-binding domain (LBD) (P03372 whole entry, looked up, the tested form may be a part): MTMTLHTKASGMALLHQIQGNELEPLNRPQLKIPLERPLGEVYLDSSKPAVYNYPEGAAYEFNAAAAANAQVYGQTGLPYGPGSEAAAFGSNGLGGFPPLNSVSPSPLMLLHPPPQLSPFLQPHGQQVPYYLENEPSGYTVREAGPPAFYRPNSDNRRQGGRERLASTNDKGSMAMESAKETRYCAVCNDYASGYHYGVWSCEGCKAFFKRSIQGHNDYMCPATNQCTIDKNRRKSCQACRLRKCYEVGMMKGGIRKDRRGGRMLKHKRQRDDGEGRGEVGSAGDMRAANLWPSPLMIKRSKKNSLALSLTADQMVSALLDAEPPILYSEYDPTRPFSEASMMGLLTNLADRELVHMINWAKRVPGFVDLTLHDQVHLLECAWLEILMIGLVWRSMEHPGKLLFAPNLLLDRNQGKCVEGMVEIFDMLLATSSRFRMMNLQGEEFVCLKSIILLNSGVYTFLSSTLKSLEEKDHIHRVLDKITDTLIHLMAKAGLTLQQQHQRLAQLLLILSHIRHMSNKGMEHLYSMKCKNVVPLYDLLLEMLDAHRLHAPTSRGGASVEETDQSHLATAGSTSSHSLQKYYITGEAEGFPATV
Chain of ERR alpha LBD (P11474 193-421, species assumed): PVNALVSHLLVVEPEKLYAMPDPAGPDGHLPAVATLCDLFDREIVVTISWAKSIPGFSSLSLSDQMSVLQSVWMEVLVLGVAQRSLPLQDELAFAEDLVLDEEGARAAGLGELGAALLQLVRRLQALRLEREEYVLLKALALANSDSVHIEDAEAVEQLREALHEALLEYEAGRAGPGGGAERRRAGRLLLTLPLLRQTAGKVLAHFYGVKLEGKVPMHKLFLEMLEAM
Chain of ERR gamma ligand-binding domain (LBD) (P62508 233-457): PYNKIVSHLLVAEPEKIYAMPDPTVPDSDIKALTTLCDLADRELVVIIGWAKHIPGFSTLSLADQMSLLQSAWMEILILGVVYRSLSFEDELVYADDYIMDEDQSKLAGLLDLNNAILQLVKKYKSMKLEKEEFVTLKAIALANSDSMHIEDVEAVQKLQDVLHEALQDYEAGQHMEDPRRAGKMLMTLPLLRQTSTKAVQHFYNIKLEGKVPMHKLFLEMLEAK
Procedure for CYP3A4: Thereafter, in order to complete the reaction, an acetonitrile solution containing an internal standard material (Terfenadine) was added thereto, centrifugation (14,000 rpm, 4° C.) was performed for 5 minutes, and a supernatant was injected into a LC-MS/MS system to analyze the metabolites of the substrate drug, thereby evaluating drug metabolism enzyme inhibition by the arylethene derivative of the present invention.
Procedure for ERR alpha LBD: as §3
Procedure for ERRβ: as §3

For `CC(C)N1CCN(c2ccc(C(=C(CCCO)c3ccccc3)c3ccc(O)cc3)cc2)CC1` [Compound 18a], at CYP1A2, the “CYP inhibition (% of control) 1A2” value is 88 % of control. Further, in the data set with CAL-62 cells (CAL62 cells), the “concentration of maximum increase of iodine uptake” value is 12 µM. The “radioactive iodine uptake in CAL62 cells” value in the data set with CAL-62 cells (for each concentration and each time) is “significant increase”. For the same compound, the “ERRγ mRNA expression, decrease vs vehicle treated group” value with ERRγ mRNA in CAL62 cells is reported as “about 16 times”. For the same compound, in the data set with NIS mRNA in CAL62 cells, the “NIS mRNA expression, increase vs vehicle-treated group” value is on record as “about 2 times”. Moreover, the “ERRγ protein expression, decrease vs vehicle treated group” value in data set [1] is reported as “about 2.8 times”. In data set [2], the “increase in membrane fully glycosylated NIS protein” value is 8.1 times and the “increase in membrane partially glycosylated NIS protein” value is on record as 6.4 times. Further, in [2] (text says significantly increased, then decreased), the “total NIS protein expression, change vs vehicle treated group” value is recorded as “about 1.9 times”. Besides, the “cytotoxic effect in clone formation assay” value in the data set on CAL62 cells is on record as “minimal cytotoxic effect”. Further, the “radioactive uptake in CAL62 tumor, increase vs vehicle group” value in [3] (100 mpk orally daily for 6 days) stood at 4.4 times. Further, the “radioactive uptake in CAL62 tumor, increase vs vehicle group” value in data set [3] (200 mpk orally daily for 6 days) turned out to be 16.2 times. Besides, in data set [4], the “weight change in the mice” value is reported as “abrupt weight change in the mice was not shown”.
With `OCCC/C(=C(\c1ccc(O)cc1)c1ccc(C2CCNCC2)cc1)c1ccccc1` [Compound 20j], the figures for the pIC50 (at ERR alpha LBD; on ERRβ; in [5]) were below 5.00, 5.31 and 6.00, respectively. The “Functional Assay at 10 μM (% of control), Cpds” value in the data set with ERRγ (10 μM, AD293, 24 hours) was 1.41 % of control. In addition, the “Functional Assay, Cpds/Ref 5182” value with ERRγ (activity relative to reference compound GSK5182) is 1.38. The “CYP inhibition (% of control) 1A2” value on CYP1A2 is 93.6 % of control. Moreover, on CYP2C9, the “CYP inhibition (% of control) 2C9” value is 77.1 % of control. Further, the “CYP inhibition (% of control) 2C19” value at CYP2C19 is on record as 62 % of control. Besides, the “CYP inhibition (% of control) 2D6” value on CYP2D6 is 89.3 % of control. Besides, the “CYP inhibition (% of control) 3A4” value on CYP3A4 is 66.2 % of control. In addition, the “MS (Microsomal Stability) (%) human” value in data set [6] is reported as 76.8%. Besides, the “MS (Microsomal Stability) (%) dog” value in [7] amounted to 68.3%. Also, the “MS (Microsomal Stability) (%) rat” value in data set [8] was 84.5%. Further, the “MS (Microsomal Stability) (%) mouse” value in [9] was found to be 25.3%.
For `OCCC/C(=C(\c1ccc(O)cc1)c1ccc(C2CCN(C3CCCCC3)CC2)cc1)c1ccccc1` [Compound 22p], the results for the pIC50 (in data set [10]; on ERR alpha LBD; in [5]) were 7.00, 5.01 and 5.67, respectively. Moreover, on CYP1A2, the “CYP inhibition (% of control) 1A2” value is 88.1 % of control. At CYP2C9, the “CYP inhibition (% of control) 2C9” value is listed as 81.8 % of control. Further, the “CYP inhibition (% of control) 2C19” value at CYP2C19 is 61.5 % of control. On CYP2D6, the “CYP inhibition (% of control) 2D6” value is given as 79.6 % of control. Besides, the “CYP inhibition (% of control) 3A4” value on CYP3A4 is recorded as 90.6 % of control. For the same compound, in data set [6], the “MS (Microsomal Stability) (%) human” value is listed as 72.3%. For the same compound, the “MS (Microsomal Stability) (%) dog” value in data set [7] was 77.7%. In addition, the “MS (Microsomal Stability) (%) rat” value in [8] is 75.3%. The “MS (Microsomal Stability) (%) mouse” value in data set [9] was determined as 40.4%. In addition, the “Permeability Pampa” value in data set [11] is 0.2 10^−6 cm/s.
As for `N#CC(=C(/N)Sc1ccccc1N)/C(C#N)=C(\N)Sc1ccccc1N` [Compound U0126, U0126], the “inhibition of the relative increase of phosphorylated ERK1 and ERK2 by compound 18a” value in the data set on pERK1/2 in CAL62 cells is given as “completely inhibited”.
Turning to `CN(C)CCOc1ccc(/C(=C(/CCCO)c2ccccc2)c2ccc(O)cc2)cc1` [GSK5182, reference compound], the “CYP inhibition (% of control) 1A2” value on CYP1A2 is given as 84.6 % of control. The “CYP inhibition (% of control) 2C9” value on CYP2C9 is recorded as 72.9 % of control. Further, the “CYP inhibition (% of control) 2C19” value on CYP2C19 is 78.2 % of control. Further, the “CYP inhibition (% of control) 2D6” value on CYP2D6 is 82.3 % of control. Also, the “CYP inhibition (% of control) 3A4” value at CYP3A4 is on record as 83 % of control. Further, the BA in data set [12] was found to be 8.4%. Moreover, the “radioiodine uptake in the tumor” value in the data set with ATC mouse tumor model is “not increased”.
On to `COc1cccc(-c2cc(=O)c3ccccc3o2)c1N` [PD98059, reference compound], for which the “inhibition of the radioactive iodine uptake increase by compound 18a” value with CAL-62 cells (selective MEK inhibitor, pre-incubated 30 minutes) is listed as “completely inhibited”. For the same compound, the “inhibition of the relative increase of phosphorylated ERK1 and ERK2 by compound 18a” value in the data set on pERK1/2 in CAL62 cells was “completely inhibited”.

(Values after patent publication US11285226B2, “Aryl ethene derivative and pharmaceutical composition containing same as active ingredient” (priority 2016, dated 2022).)
